This is an account of results in patent US20240043427A1 (Gilead Sciences, Inc., priority 2020, published 2024).

The target of test [1] is T1, CD73 (Homo sapiens (Human), UniProt P21589). Type of test: biochemical. Particulars: 1 mM NaH2PO4 in enzyme buffer, CD73 0.3 nM, AMP 15 uM.
Experimental: Compound serial dilutions were pre-spotted into Thermo Nunc assay plate. 50 uL CD73 enzyme buffer (CD73 purchased from R&D system=0.6 nM, 25 mM Tris, pH 7.4, 5 mM MgCl2, 1 mM NaH2PO4) was added into the assay plate and incubate for 15 mins. […] After incubation for 60 mins, the supernatant (20 uL) was transferred into 384-well NUNC plate pre-filled with 60 uL Quench buffer (80% organic and 20% water+0.1% FA) with internal standard. The plate was spun down at 4500 rpm for 20 mins, then 20 uL of supernatant was transferred to another Nunc plate prefilled with 80 uL of water. The samples were analyzed using Rapid fire.
In test [2] the target is T1, CD73. The experiment in a line: MDA-MB-231 Cell Based CD73 Activity Assay (DMEM). Particulars: MDA-MB-231-GFP cells, DMEM medium with 10% human plasma, 200 uM AMP.

T1 sequence (P21589 27-574): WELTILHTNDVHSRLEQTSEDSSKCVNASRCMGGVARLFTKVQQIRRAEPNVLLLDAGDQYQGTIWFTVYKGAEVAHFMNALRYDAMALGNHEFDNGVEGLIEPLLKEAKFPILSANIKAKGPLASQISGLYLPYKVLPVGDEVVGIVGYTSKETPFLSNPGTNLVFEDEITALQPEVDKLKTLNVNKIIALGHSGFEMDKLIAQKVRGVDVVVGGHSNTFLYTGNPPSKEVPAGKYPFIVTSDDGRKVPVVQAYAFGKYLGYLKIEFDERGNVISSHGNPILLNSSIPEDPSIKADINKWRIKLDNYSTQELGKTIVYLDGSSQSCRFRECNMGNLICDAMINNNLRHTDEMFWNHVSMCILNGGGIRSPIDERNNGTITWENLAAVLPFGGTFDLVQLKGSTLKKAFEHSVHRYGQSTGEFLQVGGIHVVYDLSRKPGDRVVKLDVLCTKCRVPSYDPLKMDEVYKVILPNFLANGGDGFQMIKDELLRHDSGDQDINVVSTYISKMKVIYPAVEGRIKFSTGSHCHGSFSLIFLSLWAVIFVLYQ

One may read the IC50 as the concentration needed to halve the response being measured. A low value points to higher potency. Broadly, the EC50 is the concentration needed to bring the measured effect to its halfway point. Take `CC(C)(C)NC(=O)O[C@H]1CN(c2cc(-c3c[nH]c(=O)[nH]c3=O)nn3ccnc23)CC1(F)F` [Example 544, (S)-1-(6-(2,4-dioxo-1,2,3,4-tetrahydropyrimidin-5-yl)imidazo[1,2-b]pyridazin-8-yl)-4,4-difluoropyrrolidin-3-yl tert-butylcarbamate]: in test [1], the IC50 was 1.01 nM. For the same compound, the EC50 in test [2] stood at 0.13 nM.
The compound `O=C(NCC(F)(F)F)O[C@H]1CN(c2cc(-c3c[nH]c(=O)[nH]c3=O)nn3ccnc23)CC1(F)F` [Example 545, (S)-1-(6-(2,4-dioxo-1,2,3,4-tetrahydropyrimidin-5-yl)imidazo[1,2-b]pyridazin-8-yl)-4,4-difluoropyrrolidin-3-yl (2,2,2-trifluoroethyl)carbamate] registered an IC50 in test [1] of 0.4 nM. Also, a half-maximal response in test [2] (EC50) required 0.22 nM.
As for `C[C@@H](NC(=O)O[C@H]1CN(c2cc(-c3c[nH]c(=O)[nH]c3=O)nn3ccnc23)CC1(F)F)C(F)(F)F` [Example 546, (S)-1-(6-(2,4-dioxo-1,2,3,4-tetrahydropyrimidin-5-yl)imidazo[1,2-b]pyridazin-8-yl)-4,4-difluoropyrrolidin-3-yl ((R)-1,1,1-trifluoropropan-2-yl)carbamate], in test [1], half-maximal inhibition (IC50) required 1.23 nM. Further, the EC50 in test [2] amounted to 0.69 nM.
The like results for `C[C@H](NC(=O)O[C@H]1CN(c2cc(-c3c[nH]c(=O)[nH]c3=O)nn3ccnc23)CC1(F)F)C(F)(F)F` [Example 547, (S)-1-(6-(2,4-dioxo-1,2,3,4-tetrahydropyrimidin-5-yl)imidazo[1,2-b]pyridazin-8-yl)-4,4-difluoropyrrolidin-3-yl ((S)-1,1,1-trifluoropropan-2-yl)carbamate] were, in that order, 0.31 nM and 0.13 nM.
For `COC[C@@H](C)NC(=O)O[C@H]1CN(c2cc(-c3c[nH]c(=O)[nH]c3=O)nn3ccnc23)CC1(F)F` [Example 548, (S)-1-(6-(2,4-dioxo-1,2,3,4-tetrahydropyrimidin-5-yl)imidazo[1,2-b]pyridazin-8-yl)-4,4-difluoropyrrolidin-3-yl ((R)-1-methoxypropan-2-yl)carbamate] the same measures were 0.63 nM and 0.13 nM.
The like results for `COC[C@H](C)NC(=O)O[C@H]1CN(c2cc(-c3c[nH]c(=O)[nH]c3=O)nn3ccnc23)CC1(F)F` [Example 549, (S)-1-(6-(2,4-dioxo-1,2,3,4-tetrahydropyrimidin-5-yl)imidazo[1,2-b]pyridazin-8-yl)-4,4-difluoropyrrolidin-3-yl ((S)-1-methoxypropan-2-yl)carbamate] were, in that order, 0.99 nM and 0.28 nM.
On to `CC(NC(=O)O[C@H]1CN(c2cc(-c3c[nH]c(=O)[nH]c3=O)nn3ccnc23)CC1(F)F)C(F)F` (stereo partly drawn) [Example 550, (S)-1-(6-(2,4-dioxo-1,2,3,4-tetrahydropyrimidin-5-yl)imidazo[1,2-b]pyridazin-8-yl)-4,4-difluoropyrrolidin-3-yl (1,1-difluoropropan-2-yl)carbamate], for which the midpoint of inhibition in test [1], the IC50, lay at 1.67 nM. Also, in test [2], the midpoint of the response, the EC50, lay at 0.83 nM.
The like results for `O=C(NC12CC(C1)C2)O[C@H]1CN(c2cc(-c3c[nH]c(=O)[nH]c3=O)nn3ccnc23)CC1(F)F` [Example 551, (S)-1-(6-(2,4-dioxo-1,2,3,4-tetrahydropyrimidin-5-yl)imidazo[1,2-b]pyridazin-8-yl)-4,4-difluoropyrrolidin-3-yl bicyclo[1.1.1]pentan-1-ylcarbamate] were, in that order, 0.24 nM and 0.13 nM.
The like results for `N#Cc1cc([C@H]2C[C@@H]2c2cc(-c3c[nH]c(=O)[nH]c3=O)nn3ccnc23)ccc1Cl` [Example 553, 2-chloro-5-((1S,2S)-2-(6-(2,4-dioxo-1,2,3,4-tetrahydropyrimidin-5-yl)imidazo[1,2-b]pyridazin-8-yl)cyclopropyl)benzonitrile] were, in that order, 1.39 nM and 6.89 nM.
The like results for `O=c1[nH]cc(-c2cc([C@H]3C[C@@H]3c3ccc(C(F)(F)F)cc3)c3nccn3n2)c(=O)[nH]1` [Example 554, 5-(8-((1S,2S)-2-(4-(trifluoromethyl)phenyl)cyclopropyl)imidazo[1,2-b]pyridazin-6-yl)pyrimidine-2,4(1H,3H)-dione] were, in that order, 1.57 nM and 12 nM.
`N#Cc1c(F)cc([C@H]2C[C@@H]2c2cc(-c3c[nH]c(=O)[nH]c3=O)nn3ccnc23)cc1F` [Example 557, 4-((1S,2S)-2-(6-(2,4-dioxo-1,2,3,4-tetrahydropyrimidin-5-yl)imidazo[1,2-b]pyridazin-8-yl)cyclopropyl)-2,6-difluorobenzonitrile]: in test [1], the concentration for half-maximal inhibition (IC50) was 1.71 nM. In test [2], this compound showed an EC50 of 9.73 nM.
The like results for `N#Cc1ccc([C@H]2C[C@@H]2c2cc(-c3c[nH]c(=O)[nH]c3=O)nn3ccnc23)c(F)c1F` [Example 558, 4-((1S,2S)-2-(6-(2,4-dioxo-1,2,3,4-tetrahydropyrimidin-5-yl)imidazo[1,2-b]pyridazin-8-yl)cyclopropyl)-2,3-difluorobenzonitrile] were, in that order, 2.87 nM and 20.4 nM.
For `COc1cc([C@H]2C[C@@H]2c2cc(-c3c[nH]c(=O)[nH]c3=O)nn3ccnc23)ccc1C#N` [Example 559, 4-((1S,2S)-2-(6-(2,4-dioxo-1,2,3,4-tetrahydropyrimidin-5-yl)imidazo[1,2-b]pyridazin-8-yl)cyclopropyl)-2-methoxybenzonitrile] the same measures were 0.97 nM and 7.77 nM.
The like results for `Cc1cc([C@H]2C[C@@H]2c2cc(-c3c[nH]c(=O)[nH]c3=O)nn3ccnc23)ccc1C#N` [Example 560, 4-((1S,2S)-2-(6-(2,4-dioxo-1,2,3,4-tetrahydropyrimidin-5-yl)imidazo[1,2-b]pyridazin-8-yl)cyclopropyl)-2-methylbenzonitrile] were, in that order, 0.85 nM and 2.86 nM.
Compound `O=c1[nH]cc(-c2cc([C@H]3C[C@@H]3c3ccc(OC(F)F)cc3)c3nccn3n2)c(=O)[nH]1` [Example 561, 5-(8-((1S,2S)-2-(4-(difluoromethoxy)phenyl)cyclopropyl)imidazo[1,2-b]pyridazin-6-yl)pyrimidine-2,4(1H,3H)-dione] showed an IC50 in test [1] of 0.71 nM. In addition, the half-maximal effective concentration (EC50) in test [2] is 3.06 nM.
The like results for `O=c1[nH]cc(-c2cc([C@H]3C[C@@H]3c3ccc4nc(C(F)(F)F)sc4c3)c3nccn3n2)c(=O)[nH]1` [Example 562, 5-(8-((1S,2S)-2-(2-(trifluoromethyl)benzo[d]thiazol-6-yl)cyclopropyl)imidazo[1,2-b]pyridazin-6-yl)pyrimidine-2,4(1H,3H)-dione] were, in that order, 0.97 nM and 2.64 nM.
The like results for `N#Cc1ccc([C@H]2C[C@@H]2c2cc(-c3c[nH]c(=O)[nH]c3=O)nn3ccnc23)cc1C1CC1` [Example 563, 2-cyclopropyl-4-((1S,2S)-2-(6-(2,4-dioxo-1,2,3,4-tetrahydropyrimidin-5-yl)imidazo[1,2-b]pyridazin-8-yl)cyclopropyl)benzonitrile] were, in that order, 0.66 nM and 10.6 nM.
The like results for `N#Cc1cc(F)c([C@H]2C[C@@H]2c2cc(-c3c[nH]c(=O)[nH]c3=O)nn3ccnc23)cc1F` [Example 565, 4-((1S,2S)-2-(6-(2,4-dioxo-1,2,3,4-tetrahydropyrimidin-5-yl)imidazo[1,2-b]pyridazin-8-yl)cyclopropyl)-2,5-difluorobenzonitrile] were, in that order, 1.98 nM and 9.24 nM.
Consider `N#Cc1ccc([C@H]2C[C@@H]2c2cc(-c3c[nH]c(=O)[nH]c3=O)nn3ccnc23)cc1Cl` [Example 566, 2-chloro-4-((1S,2S)-2-(6-(2,4-dioxo-1,2,3,4-tetrahydropyrimidin-5-yl)imidazo[1,2-b]pyridazin-8-yl)cyclopropyl)benzonitrile], for which, in test [1], the midpoint of inhibition, the IC50, lay at 0.78 nM. The same compound yielded an EC50 in test [2] of 4.46 nM.
`Cc1cc([C@H]2C[C@@H]2c2cc(-c3c[nH]c(=O)[nH]c3=O)nn3ccnc23)cc(F)c1C#N` [Example 567, 4-((1S,2S)-2-(6-(2,4-dioxo-1,2,3,4-tetrahydropyrimidin-5-yl)imidazo[1,2-b]pyridazin-8-yl)cyclopropyl)-2-fluoro-6-methylbenzonitrile]: in test [1], 1.73 nM corresponded to half-maximal inhibition (IC50). In test [2], this compound had an EC50 of 7.93 nM.
For `O=c1[nH]cc(-c2cc(N3CCC4(CCC4)C3)c3nccn3n2)c(=O)[nH]1` [Example 569, 5-(8-(6-azaspiro[3.4]octan-6-yl)imidazo[1,2-b]pyridazin-6-yl)pyrimidine-2,4(1H,3H)-dione] the same measures were 6.66 nM and 11.2 nM.
For `O=c1[nH]cc(-c2cc(N3CCC4(C3)CC(F)(F)C4)c3nccn3n2)c(=O)[nH]1` [Example 571, 5-(8-(2,2-difluoro-6-azaspiro[3.4]octan-6-yl)imidazo[1,2-b]pyridazin-6-yl)pyrimidine-2,4(1H,3H)-dione] the same measures were 30.4 nM and 62.3 nM.
The like results for `COCC1(C)CCN(c2cc(-c3c[nH]c(=O)[nH]c3=O)nn3ccnc23)C1` (stereo not shown) [Example 572, 5-(8-(3-(methoxymethyl)-3-methylpyrrolidin-1-yl)imidazo[1,2-b]pyridazin-6-yl)pyrimidine-2,4(1H,3H)-dione] were, in that order, 25.3 nM and 93.9 nM.
In test [1], `N#Cc1cc(F)c([C@H]2C[C@@H]2c2cc(-c3c[nH]c(=O)[nH]c3=O)nn3c(F)cnc23)cc1F` [Example 573, 4-((1S,2S)-2-(6-(2,4-dioxo-1,2,3,4-tetrahydropyrimidin-5-yl)-3-fluoroimidazo[1,2-b]pyridazin-8-yl)cyclopropyl)-2,5-difluorobenzonitrile] yielded an IC50 of 1.21 nM. In test [2], this compound had an EC50 of 7.46 nM.
The like results for `O=c1[nH]cc(-c2cc(N3CC4CC(C3)C4(F)F)c3nccn3n2)c(=O)[nH]1` [Example 575, 5-(8-(6,6-difluoro-3-azabicyclo[3.1.1]heptan-3-yl)imidazo[1,2-b]pyridazin-6-yl)pyrimidine-2,4(1H,3H)-dione] were, in that order, 57.1 nM and 142 nM.
The like results for `O=c1[nH]cc(-c2cc(N3CCC(C4CC4)C3)c3nccn3n2)c(=O)[nH]1` (stereo not shown) [Example 577, 5-(8-(3-cyclopropylpyrrolidin-1-yl)imidazo[1,2-b]pyridazin-6-yl)pyrimidine-2,4(1H,3H)-dione] were, in that order, 19.6 nM and 81.2 nM.
